The test system of assay [1] is ADPR-cyclase purified partially from rat heart. Nature of the assay: ADPR-cyclase activity assay, heart enzyme. It counts as biochemical. On the set-up: dose or concentration left out as unconfirmed. How it is done:
(§1) FIGS. 1A and 1B show the inhibition of rat kidney ADPR-cyclase that was incubated with […] NGD^+ or e-NAD^+ in the presence of various concentrations of 4,4′-dihydrioxyazobenzene (DHAB) at 37° C. for 10 min and effects of DHAB on human CD38, rat brain, heart, spleen, and kidney ADPR-cyclase. FIGS. 1A and 1B are referred to as FIG. 1 herein.
(§2) Specific ADPR-cyclase activity was determined by measuring cyclic GDP-ribose (cGDPR) or etheno-ADP-ribose (e-cADPR) fluorometrically using NGD^+ or e-NAD^+ as a substrate [Greaff et al., Biochem. J. (2002)361:379-84]. Samples were incubated in the presence […] NGD^+ or e-NAD^+ with and without an appropriate agent in an assay buffer (25 mM HEPES, pH 7.4, 100 mM NaCl, and 0.1% Triton X-100) in a […]. The reaction mixture was incubated at 37° C. for 10 min. The reaction was stopped by adding […] trichloroacetic acid (10%). […] Fluorescence of cGDPR or e-ADPR in the solution was determined at excitation/emission wavelengths of 297/410 nm (HITACHI F-2000 fluorescence spectrophotometer). cADPR-hydrolase activity was determined by incubating cADPR with ADPR-cyclase or CD38 at 37° C. for 20 min. Hydrolysis of cADPR was analyzed by high performance liquid chromatography as described (White et al., 2000). […]

The subject of assay [2] is ADPR-cyclase purified partially from rat spleen. Briefly: ADPR-cyclase activity assay, spleen enzyme. It counts as biochemical. More on the design: dose or concentration left out as unconfirmed. As to the method:
as §1, §2

Turning to `Oc1ccc(N=Nc2ccc(O)cc2)cc1` [4,4′-DHAB, 4,4′-Dihydroxyazobenzene], the “sensitivity of enzyme activity to compound” value in assay [1] and in assay [2] was “insensitive” in each case.
